{"source": "patent US20100099640A1", "about": "“TISSUE DEGENERATION PROTECTION” (priority 2007, published 2010)", "key": {"3T3-L1 adipocytes": {"tested_on": "3T3-L1 adipocytes", "test": "Triglyceride (Oil red O) accumulation during differentiation of 3T3-L1 adipocytes", "type": "cell-based, mouse", "conditions": "for triglyceride accumulation in adipocytes: 50-micromolar (lowest concentration), added during the 7-days differentiation process; for lipid deposition (triglyceride accumulation) in adipocytes: 200-micromolar (4x higher concentration), added during differentiation, steviol dissolved with DMSO", "method": "3T3-L1 mouse preadipocytes were purchased from the American Type Culture Collection (ATCC). They are cultivated in DHG medium (Dulbecco's modified Eagle's medium+High Glucose 4.5 g/l, GibcoBRL) supplemented with 10% FCS (foetal calf serum, GibcoBRL) and incubated a 37 C+5% CO2 incubator in a humidified atmosphere. For pre-adipocyte differentiation, 3T3-L1 cells were seeded at 50% confluence 3 days before the beginning of the differentiation programme. Confluent cell monolayers (day 0) are switched for 48 h to media containing the adipogenic cocktail: “DHG-L1” medium (DHG that contains 1.5 g/l NaHCO3) supplemented with 10% FCS, 5 μg/ml insulin, 300 μM dibutyryl-cyclicAMP (dbcAMP) and 1 μM dexamethasone. The cells were then refeeded every other day with DHG-L1 containing 10% FCS and 5 μg/ml insulin. At the end, 80-90% of cells were differentiated. […]\nTo characterize the state of (de)differentiation obtained in the presence of the molecules of interest, triglycerides present in the cells were stained with Oil red O (a dye of the neutral lipids). The absorbance of cell monolayers at 490 nm was measured in a spectrophotometer."}, "[1]": {"tested_on": "atherosclerotic plaques of DKO mice", "test": "Atherosclerosis: morphometric and immunohistochemical analysis of aortic root cross sections of DKO mice", "type": "in vivo, mouse", "conditions": "12 weeks", "method": "Homozygous LDL-receptor-knockout mice (LDLR^(−/−)), heterozygous ob/+, and C57BL6 mice were purchased from Jackson Laboratory, Bar Harbor, Me. LDLR^(−/−) mice were backcrossed into a C57BL6 background to the 10th generation. To obtain DKO mice with combined leptin deficiency (ob/ob) and LDL-receptor deficiency, LDLR^(−/−) and ob/+ mice were crossed. All offspring were genotyped by polymerase chain reaction (PCR) techniques. All mice were housed at 22° C. on a fixed 12/12-hour light/dark cycle. Experimental procedures in animals were performed in accordance with protocols approved by the Institutional Animal Care and Research Advisory Committee. All mice were fed standard chow containing 4% fat (Pavan Service). Food intake was ≈5.7 g/d. Mice (about 50 g) were treated with stevioside (N=14; 10 mg/kg), steviol (N=9; 5 mg/kg) or placebo (N=17) for 12 weeks between 12 and 24 weeks of age. Stevioside (Molecular weight: 804) was dissolved in water (1 mg/ml) and 500 μl of the solution was administered orally. Steviol (Molecular weight: 318) was dissolved in water containing 6% NaHCO3 (1 mg/ml) and 250 μl of the solution was administered orally.\nThe extent of atherosclerosis was determined by analysis of cross sections from the aortic root. Approximately ten 7-μm frozen sections per staining per animal were used for morphometric and immunohistochemical analysis. Total plaque areas were measured on hematoxylin and eosin stained sections. Lipids were stained with oil-red O, and macrophage areas were stained with an antibody against mouse Mac-3 antigen (Pharmingen), and oxidized LDL with the monoclonal antibody 4E6. Blinded analysis of positive immunostained sections was performed with the Quantimet600 image analyzer (Leica)."}, "[2]": {"conditions": "cited from earlier work"}, "[3]": {"tested_on": "everted gastrointestinal sacs of rats and Caco-2 cell layers", "conditions": "free steviol formed in the colon; cited from earlier work"}, "[4]": {"tested_on": "mouse pancreatic islets, β-cell line INS-1", "conditions": "direct action on β-cells; cited from earlier work"}, "[5]": {"conditions": "steviol 5 mg/kg vs stevioside 10 mg/kg orally"}, "[6]": {"conditions": "stevioside 10 mg/kg or steviol 5 mg/kg orally"}}}
{"compound": "C=C1C[C@@]23CC[C@H]4[C@@](C)(CCC[C@@]4(C)C(=O)OC4OC(C(=O)O)C(O)C(O)C4O)[C@@H]2CC[C@]1(O)C3", "note": "(stereo partly drawn) [steviol glucuronide, steviol-19-O-β-D-glucuronide]", "values": [{"measurement": "triglyceride accumulation in adipocytes", "setting": "3T3-L1 adipocytes", "result": "inhibited significantly"}]}
{"compound": "C=C1C[C@@]23CC[C@H]4[C@@](C)(CCC[C@@]4(C)C(=O)O)[C@@H]2CC[C@]1(O)C3", "note": "[steviol, Kaur-16-en-18-oic acid, 13-hydroxy-, (4α)-]", "values": [{"measurement": "SMC content of plaques, compared to stevioside", "setting": "[1]; [5]", "result": "increased somewhat more"}, {"measurement": "plaque lipids, compared to stevioside", "setting": "[1]; [5]", "result": "decreased somewhat more"}, {"measurement": "lipid deposition in plaques", "setting": "[1]; [6]", "result": "reducing"}, {"measurement": "macrophage deposition in plaques", "setting": "[1]; [6]", "result": "reducing"}, {"measurement": "oxLDL deposition in plaques", "setting": "[1]; [6]", "result": "reducing"}, {"measurement": "plaque volume", "setting": "[1]; [6]", "result": "lowered"}, {"measurement": "smooth muscle cell (SMC)-to-macrophage ratio (proxy for plaque stability)", "setting": "[1]; [6]", "result": "increased"}, {"measurement": "triglyceride accumulation in adipocytes", "setting": "3T3-L1 adipocytes", "result": "did not significantly reduce"}, {"measurement": "lipid deposition (triglyceride accumulation) in adipocytes", "setting": "3T3-L1 adipocytes", "result": "did not have an effect"}, {"measurement": "transformation by human microsomes relative to rat microsomes", "setting": "[2]; human vs rat liver microsomes", "result": "about 4 times lower"}, {"measurement": "transformation of steviol by human microsomes", "setting": "[2]; in vitro incubation with human liver microsomes", "result": "very low"}, {"measurement": "absorption of free steviol", "setting": "[3]", "result": "easily absorbed"}, {"measurement": "insulin secretion", "setting": "[4]", "result": "stimulation of insulin secretion"}]}
{"compound": "Kaur-16-en-18-oic acid, 13-[(O-b-D-glucopyranosyl-(1→2)-O-[b-D-glucopyranosyl-(1→3)]-b-D-glucopyranosyl)oxy]-, b-D-glucopyranosyl ester, (4a)- [rebaudioside]", "values": [{"measurement": "triglyceride accumulation in adipocytes", "setting": "3T3-L1 adipocytes", "result": "did not significantly reduce"}, {"measurement": "lipid deposition (triglyceride accumulation) in adipocytes", "setting": "3T3-L1 adipocytes", "result": "inhibited"}]}
